A value given as a limit tells only on which side of the number the result lay.

The nature of data set [1]: Stability assay in human plasma. It counts as in vitro ADME. To be noted: 1 μM in human plasma, LC-MS/MS; read-out: t½ human plasma. The protocol: Compounds are incubated at a concentration of 1 μM in human (or animal) plasma. Samples are taken at fixed time points and the remnant of compound is determined by LC-MS/MS after protein precipitation. Half life in table C.2.1 is expressed in minutes.

Data set [2] deals with MLC-T18/S19 phosphorylation in A7r5 cells (endogenous ROCK). Description: MLC phosphorylation assay (ELISA) in A7r5 cells. It counts as cell-based. To be noted: Rattus norvegicus, serum-free medium, phospho-MLC-T18/S19 ELISA, read-out: EC50 MLC-PP. The protocol:
Rat smooth muscle cell line A7r5 is used. The endogenous expression of ROCK results in a constitutive phosphorylation of the regulatory myosin light chain at T18/S19. A7r5 cells were plated in DMEM supplemented with 10% FCS in multiwall cell culture plates. After serum starvation overnight, cells were incubated with compounds in serum-free medium.
Quantification of MLC-T18/S19 phosphorylation is assessed in 96 well-plates via ELISA using a phospho-MLC-T18/S19 specific antibody and a secondary detection antibody. Raw data were converted into percent substrate phosphorylation relative to high controls, which were set to 100%. EC50 values were determined using GraphPad Prism 5.01 software using a nonlinear regression curve fit with variable hill slope.
(An ELISA detects its analyte on a solid surface through an enzyme-linked reagent.)

The nature of data set [3]: Stability towards drug metabolizing enzymes in lung S9. It counts as in vitro ADME. As to conditions: human, lung S9 fraction, lung S9 with NADPH, UDPGA, PAPS and GSH, read-out: t½ human lung S9. How it is done: A 1 μM solution of the ROCK inhibitors is incubated with a reaction mixture containing lung S9 (EDTA-free) as well as the cofactors NADPH, UDPGA, PAPS and GSH. Samples are collected at 0, 15, 30 and 60 minutes post incubation. Negative control samples incubated with ROCK inhibitors and S9 fraction in the absence of cofactors are run in parallel. By using LC-MS/MS analysis, the percent of ROCK compounds remaining at each time point, the metabolic half-life of the ROCK compounds (expressed in minutes in table C.2.2) and the metabolic half-life of the control compounds are determined.

Data set [4] concerns male BALB/c mice. Description: Acute LPS lung challenge model, BALF cell counts. The class given is in vivo, mouse. As to conditions: 0.1 and 0.01 mg/kg intratracheally 0.5 hr before LPS; BALF at 24 hrs; versus dexamethasone 1 mg/kg oral. How it is done:
FIG. 1: Anti-inflammatory activity of Cpd4 in an acute LPS lung challenge model (mouse). Data is provided as bronchoalveolar lavage fluid (BALF) cell count (10^3/μl)±SEM. WBC: White Blood Cell. NEUT: Neutrophil. Dex: Dexamethasone control.
Selected compounds of the invention were evaluated in vivo in an acute LPS lung challenge model. Groups of 6 male BALB/c mice were used for each tested dose and for positive and negative controls. Under anesthesia with gas anesthetics (isoflurane), test substances and vehicle (0.9% NaCl, 1 mL/kg) were administered intratracheally (IT) to test animals 0.5 hr prior to challenge with ˜80 μg/kg of E. coli lipopolysaccharide (LPS, Sigma, serotype 055:B5, in sterile saline, 2 μg in 20 μL per mouse intratracheally). Dexamethasone, the positive control, at 1 mg/kg in 2% Tween 80 was given orally to test animals one hour before LPS challenge. Mice were anaesthetized with isoflurane at 24 hrs after LPS challenge, 0.5 mL of phosphate buffered saline (PBS, pH 7.4) was instilled into the lung twice through a tracheal cannula, after which about a total of 0.6˜0.8 mL of bronchoalveolar lavage fluid (BALF) was obtained. Total cell and neutrophils counts in BALF were then determined and one-way ANOVA followed by Dunnett's test was used to analyze difference between the vehicle control and treated groups. Significant difference is considered at P<0.05.

Data set [5] can be described thus: Stability in mouse intestinal homogenate. The class given is in vitro ADME. To be noted: 40 mg/ml mouse intestinal homogenate, read-out: t½ (min) mouse.
Data set [6] is described as follows: Stability in human intestinal tissue homogenate. It counts as in vitro ADME. To be noted: 40 mg/ml human intestinal homogenate, read-out: t½ (min) human. The protocol: A 1 μM solution of the ROCK inhibitors is incubated with human intestinal tissue homogenate (final concentration: 40 mg/ml) Samples are collected at 0, 20 and 60 minutes post incubation. By using LC-MS/MS analysis, the percent of ROCK compounds remaining at each time point, the metabolic half-life of the ROCK compounds (expressed in minutes in table C.2.3) and the metabolic half-life of control compounds are determined.

As for `NCc1ccc(C(=O)Nc2ccncc2F)cc1-c1cccc(C(=O)Nc2ccc(OC3CCOC3=O)cc2)c1` (stereo not shown) [Cpd 3, 6-(aminomethyl)-N^3-(3-fluoropyridin-4-yl)-N^3′-(4-((2-oxotetrahydrofuran-3-yl)oxy)phenyl)-[1,1′-biphenyl]-3,3′-dicarboxamide], the half-life at 1 μM in data set [1] was below 20 min. Moreover, the EC50 (in general, the concentration that produces a half-maximal response) in data set [2] lay in the range of 100 to 1000 nM.
For `NCc1ccc(C(=O)Nc2ccncc2F)cc1-c1cccc(NC(=O)c2ccc(SC3CCOC3=O)cc2)c1` (stereo not shown) [Cpd 4, 6-(aminomethyl)-N-(3-fluoropyridin-4-yl)-3′-(4-((2-oxotetrahydrofuran-3-yl)thio)benzamido)-[1,1′-biphenyl]-3-carboxamide], the half-life at 1 μM in data set [3] is above 60 min; in data set [1], below 20 min. Besides, the “anti-inflammatory activity (BALF WBC and neutrophil count)” value in data set [4] is given as “equivalent to the dexamethasone control”. In addition, the EC50 in data set [2] is below 100 nM.
As for `NCc1ccc(C(=O)Nc2ccncc2F)cc1-c1cccc(NC(=O)c2ccc(NC3CCOC3=O)cc2)c1` (stereo not shown) [Cpd 13, 6-(aminomethyl)-N-(3-fluoropyridin-4-yl)-3′-(4-((2-oxotetrahydrofuran-3-yl)amino)benzamido)-[1,1′-biphenyl]-3-carboxamide], the half-life at 1 μM in data set [3] was above 60 min; in data set [1] it was below 20 min. Also, the EC50 in data set [2] was below 100 nM.
Regarding `NCc1ccc(C(=O)Nc2ccncc2F)cc1-c1cccc(C(=O)Nc2cccc(SC3CCOC3=O)c2)c1` (stereo not shown) [Cpd 8, 6-(aminomethyl)-N^3-(3-fluoropyridin-4-yl)-N^3′-(3-((2-oxotetrahydrofuran-3-yl)thio)phenyl)-[1,1′-biphenyl]-3,3′-dicarboxamide], the half-life at 1 μM in data set [1] is below 20 min. Moreover, the EC50 in data set [2] lay within 100 to 1000 nM.
The corresponding values for `CC1CC(Sc2ccc(NC(=O)c3cccc(-c4cc(C(=O)Nc5ccncc5F)ccc4CN)c3)cc2)C(=O)O1` (stereo not shown) [Cpd 9, 6-(aminomethyl)-N^3-(3-fluoropyridin-4-yl)-N^3′-(4-((5-methyl-2-oxotetrahydrofuran-3-yl)thio)phenyl)-[1,1′-biphenyl]-3,3′-dicarboxamide] are below 20 min and below 100 nM.
Consider `NCc1ccc(C(=O)Nc2ccncc2F)cc1-c1cccc(C(=O)Nc2ccc(CNC3CCOC3=O)cc2)c1` (stereo not shown) [Cpd 1, 6-(aminomethyl)-N^3-(3-fluoropyridin-4-yl)-N^3′-(4-(((2-oxotetrahydrofuran-3-yl)amino)methyl)phenyl)-[1,1′-biphenyl]-3,3′-dicarboxamide], for which the half-life at 1 μM in data set [3] is above 60 min; in data set [1], below 20 min. For the same compound, the EC50 in data set [2] is 100 to 1000 nM.
On the same counts, the results for `NCc1ccc(C(=O)Nc2ccncc2F)cc1-c1cccc(C(=O)Nc2ccc(SC3CCOC3=O)cc2)c1` (stereo not shown) [Cpd 6, 6-(aminomethyl)-N^3-(3-fluoropyridin-4-yl)-N^3′-(4-((2-oxotetrahydrofuran-3-yl)thio)phenyl)-[1,1′-biphenyl]-3,3′-dicarboxamide] are above 60 min, below 20 min and below 100 nM.
On to `NCc1ccc(C(=O)Nc2ccncc2F)cc1-c1cccc(C(=O)Nc2ccc(SC3COC(=O)C3)cc2)c1` (stereo not shown) [Cpd 11, 6-(aminomethyl)-N^3-(3-fluoropyridin-4-yl)-N^3′-(4-((2-oxotetrahydrofuran-4-yl)thio)phenyl)-[1,1′-biphenyl]-3,3′-dicarboxamide], for which the half-life at 1 μM in data set [1] was below 20 min. Also, in data set [2], the EC50 was below 100 nM.
Regarding `CN(c1ccc(NC(=O)c2cccc(-c3cc(C(=O)Nc4ccncc4F)ccc3CN)c2)cc1)C1CCOC1=O` (stereo not shown) [Cpd 7, 6-(aminomethyl)-N^3-(3-fluoropyridin-4-yl)-N^3′-(4-(methyl(2-oxotetrahydrofuran-3-yl)amino)phenyl)-[1,1′-biphenyl]-3,3′-dicarboxamide], the half-life at 1 μM in data set [5] is above 120 min; in data set [3], above 60 min; in data set [1] it was below 20 min; in data set [6] it was above 120 min. In addition, the EC50 in data set [2] was below 100 nM.
As to `NCc1ccc(C(=O)Nc2ccncc2F)cc1-c1cccc(C(=O)Nc2ccc(SC3CCOC3=O)cc2F)c1` (stereo not shown) [Cpd 12, 6-(aminomethyl)-N^3-(3-fluoropyridin-4-yl)-N^3′-(2-fluoro-4-((2-oxotetrahydrofuran-3-yl)thio)phenyl)-[1,1'-biphenyl]-3,3′-dicarboxamide], the half-life at 1 μM in data set [1] is below 20 min. In data set [2], the 50% effective concentration (EC50) is below 100 nM.
Consider `NCc1ccc(C(=O)Nc2ccncc2F)cc1-c1cccc(C(=O)Nc2ccc(NC3CCOC3=O)cc2)c1` (stereo not shown) [Cpd 5, 6-(aminomethyl)-N^3-(3-fluoropyridin-4-yl)-N^3′-(4-((2-oxotetrahydrofuran-3-yl)amino)phenyl)-[1,1′-biphenyl]-3,3′-dicarboxamide], for which the half-life at 1 μM in data set [5] was above 120 min; in data set [3] it was above 60 min; in data set [1] it was below 20 min. Further, the EC50 in data set [2] was below 100 nM.
For `NCc1ccc(C(=O)Nc2ccncc2F)cc1-c1cccc(C(=O)Nc2ccc(SCC3CCOC3=O)cc2)c1` (stereo not shown) [Cpd 2, 6-(aminomethyl)-N^3-(3-fluoropyridin-4-yl)-N^3′-(4-(((2-oxotetrahydrofuran-3-yl)methyl)thio)phenyl)-[1,1′-biphenyl]-3,3′-dicarboxamide], the half-life at 1 μM was above 120 min in data set [5], above 60 min in data set [3], below 20 min in data set [1] and above 120 min in data set [6]. Also, in data set [2], the EC50 is below 100 nM.

The values are drawn from patent US9682963B2, “Pyridine derivatives as soft rock inhibitors” (Amakem NV, priority 2013, dated 2017).
